Legend:
[1] = target: T1, rat CYP17 (rat testicular microsomes) (Rattus norvegicus, UniProt P11715); assay: CYP17 inhibition assay in rat testicular microsomes; type: biochemical
T1 construct: Rat testis tissue was collected and disrupted with 30 strokes of a glass homogenizer; from tissue; host or cells: rat testis (microsomes)
T1 sequence (P11715 1-507): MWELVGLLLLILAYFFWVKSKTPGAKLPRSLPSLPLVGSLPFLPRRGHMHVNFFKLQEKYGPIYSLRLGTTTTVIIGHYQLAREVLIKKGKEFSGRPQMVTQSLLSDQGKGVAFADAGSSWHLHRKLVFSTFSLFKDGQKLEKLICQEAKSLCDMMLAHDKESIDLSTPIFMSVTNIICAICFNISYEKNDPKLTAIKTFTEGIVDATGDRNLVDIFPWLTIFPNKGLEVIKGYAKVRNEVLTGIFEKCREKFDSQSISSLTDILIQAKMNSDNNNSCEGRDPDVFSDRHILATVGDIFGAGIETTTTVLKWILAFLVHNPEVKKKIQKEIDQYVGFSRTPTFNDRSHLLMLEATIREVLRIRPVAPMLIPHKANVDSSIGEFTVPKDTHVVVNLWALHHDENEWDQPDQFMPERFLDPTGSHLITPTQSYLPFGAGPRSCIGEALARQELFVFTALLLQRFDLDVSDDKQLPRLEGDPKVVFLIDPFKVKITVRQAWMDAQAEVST
Procedure: CYP17 Inhibition Assay in Rat Testicular Microsomes (Rat CYP17) or Yeast Microsome Overexpressing Human CYP17
1. NADPH (Sigma): A working stock was prepared by adding 25 μL of 6.5 mM NADPH in each tube. The final concentration of NADPH used in the assay was 325 μM.
2. Potassium Phosphate Buffer: One molar (1M) solutions of K2HPO4 and KH2PO4 were prepared. Eight mL of the 1 M KH2PO4 and 1.98 mL of the 1 M K2HPO4 were combined and the pH was adjusted to 7.4.
3. ^3H3-17α-hydroxypregnenolone (American Radiolabeled Chemicals, Inc., stock 1 μCi/μL): A 1:1 dilution of ^3H3-17α-hydroxypregnenolone in ethanol was prepared by combining 100 μL ^3H3-17α-hydroxypregnenolone+100 μL ethanol for one complete 96 well plate. For the reaction, 2 μL of the diluted ^3H3-17α-hydroxypregnenolone was added in each tube, i.e., 1 μCi/reaction. 4. Microsome Isolation Buffer: The microsome isolation buffer was prepared by combining 250 mM Sucrose, 5 mM EDTA, 10 mM Tris HCl, 4 mM DTT, and adjusting to pH 7.4. 5. TEG Buffer: The TEG buffer was prepared by combining 50 mM Tris HCl, 1 mM EDTA, and 20% Glycerol. 6. Rat Testicular Microsomes: Rat testis tissue was collected and disrupted with 30 strokes of a glass homogenizer on ice with 250 μL of microsome isolation buffer, followed by centrifugation at 10,000 g for 10 minutes at 4° C. The supernatant was collected and centrifuged at 100,000 g for 45 minutes at 4° C. The pellet was dissolved in TEG Buffer and the protein was quantified. The homogenized microsome samples were then frozen at −80° C. • 7. Yeast Microsomes which overexpress the human CYP17 enzyme were obtained from Premas Biotech, India.
Potassium phosphate buffer (470 μL) was prepared as described above and was added to each well of a deep well plate. The test compound was diluted using a TECAN liquid handler and 5 μL of diluted compound was transferred to each well (96 deep well/1 mL). A solution (25 μL) of 6.5 mM NADPH was added (final concentration of 325 μM in the assay). ^3H3-17α-hydroxypregnenolone (2 μL of the working stock) was added to each tube. The plates were then pre-incubated for 15 minutes at 37° C. Following the pre-incubation, either 5 μL rat testicular microsomes (150-160 μg) or 5 μL of yeast microsomes expressing human CYP17 (1.7 pmol), was added. Incubation was at 37° C. for 60 minutes in the presence of oxygen. The plates were then placed in ice and chloroform (500 μL) was added, mixed well and incubated at 4° C. for 20 minutes. The plates were then centrifuged at 1000 rpm for 15 minutes at 4° C.
A portion (300 μL) of the aqueous solution was collected and mixed with a 5% aqueous suspension of activated charcoal (300 μL). The plates were then incubated at 4° C. for 30 minutes, after which the plates were centrifuged at 1000 rpm for 15 minutes at 4° C. From this, 125 μL of the aqueous solution was collected and plated into a 96 well plate. Microscint™ 40 [125 μL, Perkin-Elmer; containing a mixture of a polymer based on alkylphenolethoxylate (20-40%), diethanolamine-phosphoric acid ester ammonium salt (10-20%), sodium dioctyl sulphosuccinate (2.5-10%), triethyl phosphate (2.5-10%), 3,6-dimethyl-4-octyne-3,6-diol (≦2.5%), a polymer based on nonylphenolethoxylate (≦2.5%), diisopropyl naphthalene isomers (40-60%), 2,5-diphenyloxazole (≦2.5%), and 9,10-dimethylanthracene] was added and mixed well. After 30 minutes of incubation, the samples were analyzed with a MicroBeta® Trilux microplate liquid scintillation counter and luminometer (Perkin-Elmer).

[2] = target: T2, human CYP17 in H295R adrenocortical carcinoma cells (Homo sapiens, UniProt P05093); assay: Cell-based human CYP17 inhibition assay, H295R cells; details: 16 hours, read-out: CYP17 (human H295R adrenal cells)
T2 construct: H295R Adrenocortical carcinoma cells [NCI-H295A, ATCC Number CRL-2128, American Type Culture Collection; host or cells: H295R adrenocortical carcinoma cells
T2 sequence (P05093 1-508): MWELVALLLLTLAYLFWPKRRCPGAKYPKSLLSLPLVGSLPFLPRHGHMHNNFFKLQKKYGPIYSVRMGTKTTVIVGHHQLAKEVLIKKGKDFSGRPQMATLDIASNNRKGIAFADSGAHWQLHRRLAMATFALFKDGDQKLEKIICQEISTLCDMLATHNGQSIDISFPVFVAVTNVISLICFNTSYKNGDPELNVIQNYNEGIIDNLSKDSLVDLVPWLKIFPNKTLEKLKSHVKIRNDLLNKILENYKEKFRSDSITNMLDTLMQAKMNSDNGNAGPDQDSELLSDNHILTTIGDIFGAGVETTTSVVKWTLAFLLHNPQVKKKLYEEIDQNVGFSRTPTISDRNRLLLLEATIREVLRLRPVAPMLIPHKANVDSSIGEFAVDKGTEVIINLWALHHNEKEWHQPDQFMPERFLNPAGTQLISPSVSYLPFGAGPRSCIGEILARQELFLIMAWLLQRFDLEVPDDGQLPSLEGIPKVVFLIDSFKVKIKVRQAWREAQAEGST
Procedure: Cell-Based Human CYP17 Inhibition Assay
1. H295R Adrenocortical Carcinoma Cells and Growth Media: The media for the H295R Adrenocortical carcinoma cells [NCI-H295A, ATCC Number CRL-2128, American Type Culture Collection, Manassas, Va., US] (500 mL) was a DMEM:F12 Mix 1:1 with 5% (2 mL) BD Nu Serum; 1% (5 mL) ITS+Premix [BD Biosciences] and 1% Penstrep. 2. LNCap-CYP17 Cells and Growth Media: Full length hCYP17a1 gene (NCBI Reference Sequence: NM_000102.3) was cloned in pcDNA3.1(+) vector between HindIII and XhoI site. The pcDNA3.1(+) vector contains the Neomycin resistance gene and was used for selection of stable cell line. The hCYP17a1 containing pcDNA3.1(+) was transfected into LNCap cells to create the LNCap-CYP17 cell line. The media for the LNCaP-CYP17 cells was RPMI 1640, 10% FBS, 1% PenStrep, Geneticin 400 μg/mL.
The H295R cells or LNCaP-hCYP17 cells were subcultured and 30,000 cells per well were seeded in a poly-d lysine plate and incubated overnight at 37° C. The next day the media was removed and 200 μL of fresh media with ^3H3-17α-hydroxy-pregnenolone (1:1000) was added. 50 μL of serially diluted compounds from a 5× plate (5 times the final desired concentration) was added. The working concentration range for active, new compounds started from a high concentration of 10 μM with 3-fold serial dilutions generating up to 10 concentrations. The serial dilution in the 100× plate (in DMSO) and the stamping of a 5× plate (in media) from the 100× plate were carried out using a TECAN liquid handling device.
The plates were incubated overnight (16 hours) at 37° C. After 16 hours, the media was removed (approximately 220 μL) and an equal amount of chloroform was added, mixed and incubated for 30 minutes at 4 degrees. The plate was centrifuged at 4000 rpm for 15 minutes at 4° C., following which the top aqueous layer was carefully removed and added into a new deep well plate. An equal volume of activated 5% charcoal was added, mixed and incubated for 30 minutes at 4° C. The plate was then centrifuged at 4000 rpm for 15 minutes at 4° C. and the top layer carefully separated, avoiding any charcoal contamination, and placed in a white, clear bottom plate (plate cat #3610, Corning Life Sciences). An equal volume of Microscint™ 40 was added and mixed well. Following the incubation for 30 minutes, readings for the radiotracer were taken using a Microbeta® trilux.

Compound | IC50 [1] | IC50 [2]
CC(O)(c1ccncc1)c1ccc(-c2ccc(C#N)cc2)cn1 (stereo not shown) [Example 10, 4-(6-(1-hydroxy-1-(pyridin-4-yl)-ethyl)pyridin-3-yl)-benzonitrile] | < 0.05 µM | 0.201 to 10 µM
OC1(c2cnc(-c3ccc(F)cc3)s2)CCCc2cnccc21 (stereo not shown) [Example 25, 5-(2-(4-fluorophenyl)thiazol-5-yl)-5,6,7,8-tetrahydroisoquinolin-5-ol] | < 0.05 µM | 0.201 to 10 µM
CC(O)(c1ccncc1)c1cnc(-c2ccc(C#N)c(C(F)(F)F)c2)s1 (stereo not shown) [Example 30, 4-(5-(1-Hydroxy-1-(pyridin-4-yl)ethyl)thiazol-2-yl)-2-(trifluoro-methyl)benzonitrile] | < 0.05 µM | 0.05 to 0.2 µM
OC1(c2cnc(-c3ccc(F)cc3)s2)CCc2cnccc21 (stereo not shown) [Example 59, 5-(2-(4-fluorophenyl)thiazol-5-yl)-6,7-dihydro-5H-cyclopenta[c]pyridin-5-ol] | 0.05 to 0.2 µM | 0.201 to 10 µM
CC(O)(c1ccncc1)c1nnc(-c2ccc(F)cc2)s1 (stereo not shown) [Example 61, 1-(5-(4-fluorophenyl)-1,3,4-thiadiazol-2-yl)-1-(pyridin-4-yl)ethanol] | < 0.05 µM | 0.05 to 0.2 µM
OC(c1ccncc1)c1cnc(-c2ccc(F)cc2)s1 (stereo not shown) [Example 24, [2-(4-fluorophenyl)-1,3-thiazol-5-yl](pyridin-4-yl)methanol] | < 0.05 µM | 0.05 to 0.2 µM
CC(O)(c1ccncc1)c1cnc(-c2ccc(F)cc2F)s1 (stereo not shown) [Example 27, 1-[2-(2,4-Difluoro-phenyl)-thiazol-5-yl]-1-pyridin-4-yl-ethanol] | < 0.05 µM | < 0.05 µM
CC(O)(c1ccncc1)c1noc(-c2ccc(F)cc2)n1 (stereo not shown) [Example 29, 1-(5-(4-Fluorophenyl)-1,2,4-oxadiazol-3-yl)-1-(pyridin-4-yl)ethanol] | < 0.05 µM | 0.201 to 10 µM
CC(O)(c1ccncc1)c1cnc(-c2ccc(C#N)c(Cl)c2)s1 (stereo not shown) [Example 38, 2-chloro-4-(5-(1-hydroxy-1-(pyridin-4-yl)ethyl)thiazol-2-yl)benzonitrile] | < 0.05 µM | 0.05 to 0.2 µM
CC(O)(c1ccncc1)c1cnc(-c2ccc(F)c(Cl)c2)s1 (stereo not shown) [Example 46, 1-(2-(3-chloro-4-fluorophenyl)thiazol-5-yl)-1-(pyridin-4-yl)ethanol] | < 0.05 µM | < 0.05 µM
CC(O)(c1ccncc1)c1cnc(-c2ccc(F)c(C#N)c2)s1 (stereo not shown) [Example 40, 2-fluoro-5-(5-(1-hydroxy-1-(pyridin-4-yl)ethyl)thiazol-2-yl)benzonitrile] | < 0.05 µM | < 0.05 µM
CC(O)(c1ccncc1)c1cnc(-c2ccc(F)cc2)cn1 (stereo not shown) [Example 11, 1-(5-(4-Fluorophenyl)pyrazin-2-yl)-1-(pyridin-4-yl)ethanol] | < 0.05 µM | 0.201 to 10 µM
CC(O)(c1ccncc1)c1cnc(-c2ccc(Cl)c(C(F)(F)F)c2)s1 (stereo not shown) [Example 39, 1-(2-(4-chloro-3-(trifluoromethyl)phenyl)thiazol-5-yl)-1-(pyridin-4-yl)ethanol] | < 0.05 µM | 0.05 to 0.2 µM
CC(=O)OC(C)(c1ccncc1)c1cnc(-c2ccc(F)cc2)s1 (stereo not shown) [Example 65, 1-(2-(4-Fluorophenyl)thiazol-5-yl)-1-(pyridin-4-yl)ethyl acetate] | < 0.05 µM | 
CCC(=O)OC(C)(c1ccncc1)c1cnc(-c2ccc(F)cc2)s1 (stereo not shown) [Example 66, 1-(2-(4-fluorophenyl)thiazol-5-yl)-1-(pyridin-4-yl)ethyl propionate] | < 0.05 µM | 
CCC(O)(c1ccncc1)c1cnc(-c2cn[nH]c2)s1 (single isomer, unassigned; (+)) [Example 20, (+)-1-[2-(1H-pyrazol-4-yl)-1,3-thiazol-5-yl]-1-pyridin-4-ylpropan-1-ol] | 0.201 to 10 µM | 
CCCC(=O)OC(C)(c1ccncc1)c1cnc(-c2ccc(F)cc2)s1 (stereo not shown) [Example 67, 1-(2-(4-fluorophenyl)thiazol-5-yl)-1-(pyridin-4-yl)ethyl butyrate] | < 0.05 µM | 
CC(O)(c1ccncc1)c1cnc(-c2ccc(F)nc2)s1 (stereo not shown) [Example 22, 1-(2-(6-Fluoropyridin-3-yl)thiazol-5-yl)-1-(pyridin-4-yl)ethanol] | 0.201 to 10 µM | 
